Assay results taken from patent US10864196B2, “Modulators of the integrated stress pathway” (Calico Life Sciences LLC, priority 2016, dated 2020).

tested on: HEK293T cells carrying the ATF4 luciferase reporter; test: ATF4-Luc assay (in vitro model of VWMD); type: cell-based; conditions: Homo sapiens, HEK-293T, 1 μg/mL tunicamycin, 7 hours, One Glo luminescence
Experimental: In order to test exemplary compounds of the invention in a cellular context, a stable VWMD cell line was first constructed. The ATF4 reporter was prepared by fusing the human full-length ATF4 5′-UTR (NCBI Accession No. BC022088.2) in front of the firefly luciferase (FLuc) coding sequence lacking the initiator methionine as described in Sidrauski et al (eLife 2013). The construct was used to produce recombinant retroviruses using standard methods and the resulting viral supernatant was used to transduce HEK293T cells, which were then subsequently selected with puromycin to generate a stable cell line.
HEK293T cells carrying the ATF4 luciferase reporter were plated on polylysine coated 384-well plates (Greiner Bio-one) at 30,000 cells per well. Cells were treated the next day with 1 μg/mL tunicamycin and 200 nM of a compound of Formula (I) for 7 hours. Luminescence was measured using One Glo (Promega) as specified by the manufacturer. Cells were maintained in DMEM with L-glutamine supplemented with 10% heat-inactivated FBS (Gibco) and Antibiotic-Antimycotic solution (Gibco).
Table 2 below summarizes the EC50 data obtained using the ATF4-Luc assay for exemplary compounds of the invention.

Compared with `CC(C)c1ccc(OCc2nnc(C34CC(NC(=O)COc5ccc(Cl)c(F)c5)(C3)C4)o2)cn1` [Compound 154, 2-(4-chloro-3-fluorophenoxy)-N-{3-[5-({[6-(propan-2-yl)pyridin-3-yl]oxy}methyl)-1,3,4-oxadiazol-2-yl]bicyclo[1.1.1]pentan-1-yl}acetamide], `O=C(COc1ccc(Cl)c(F)c1)NC12CC(c3nnc(COc4ccc(C5CC5)nc4)o3)(C1)C2` [Compound 150, 2-(4-chloro-3-fluorophenoxy)-N-[3-(5-{[(6-cyclopropylpyridin-3-yl)oxy]methyl}-1,3,4-oxadiazol-2-yl)bicyclo[1.1.1]pentan-1-yl]acetamide] is lower in EC50: over 2 µM for the first, 1 to 2 µM for the second.

`COc1cccc(Oc2nnc(C34CC(NC(=O)COc5ccc(Cl)c(F)c5)(C3)C4)o2)c1` [Compound 136, 2-(4-chloro-3-fluorophenoxy)-N-{3-[5-(3-methoxyphenoxy)-1,3,4-oxadiazol-2-yl]bicyclo[1.1.1]pentan-1-yl}acetamide] and `Cc1cccc(Oc2nnc(C34CC(NC(=O)COc5ccc(Cl)c(F)c5)(C3)C4)o2)c1` [Compound 135, 2-(4-chloro-3-fluorophenoxy)-N-{3-[5-(3-methylphenoxy)-1,3,4-oxadiazol-2-yl]bicyclo[1.1.1]pentan-1-yl}acetamide] fall in the same range of EC50: 0.05 to 0.25 µM for the first, 0.05 to 0.25 µM for the second.

`O=C(COc1ccc(Cl)c(F)c1)NC12CC(c3nnc(Oc4ccccc4F)o3)(C1)C2` [Compound 137, 2-(4-chloro-3-fluorophenoxy)-N-{3-[5-(2-fluorophenoxy)-1,3,4-oxadiazol-2-yl]bicyclo[1.1.1]pentan-1-yl}acetamide] and `O=C(COc1ccc(Cl)c(F)c1)NC12CC(c3nnc(Oc4ccccc4Cl)o3)(C1)C2` [Compound 127, 2-(4-chloro-3-fluorophenoxy)-N-{3-[5-(2-chlorophenoxy)-1,3,4-oxadiazol-2-yl]bicyclo[1.1.1]pentan-1-yl}acetamide] fall in the same range of EC50: 0.25 to 1 µM for the first, 0.25 to 1 µM for the second.

First: O=C(COc1ccc(Cl)c(F)c1)NC12CC(c3nnc(COc4cncc(C(F)(F)F)c4)o3)(C1)C2 [Compound 122, 2-(4-chloro-3-fluorophenoxy)-N-{3-[5-({[5-(trifluoromethyl)pyridin-3-yl]oxy}methyl)-1,3,4-oxadiazol-2-yl]bicyclo[1.1.1]pentan-1-yl}acetamide]
Second: Cc1cncc(OCc2nnc(C34CC(NC(=O)COc5ccc(Cl)c(F)c5)(C3)C4)o2)c1 [Compound 143, 2-(4-chloro-3-fluorophenoxy)-N-[3-(5-{[(5-methylpyridin-3-yl)oxy]methyl}-1,3,4-oxadiazol-2-yl)bicyclo[1.1.1]pentan-1-yl]acetamide]
The EC50 of the first is lower: 0.05 to 0.25 µM for the first, 0.25 to 1 µM for the second.

First: O=C(COc1ccc(Cl)c(F)c1)NC12CC(c3nnc(COc4ccc(Cl)c(F)c4)o3)(C1)C2 [Compound 115, 2-(4-chloro-3-fluorophenoxy)-N-(3-{5-[(4-chloro-3-fluorophenoxy)methyl]-1,3,4-oxadiazol-2-yl}bicyclo[1.1.1]pentan-1-yl)acetamide]
Second: O=C(COc1ccc(Cl)c(F)c1)NC12CC(c3nnc(COc4cnc5ccoc5c4)o3)(C1)C2 [Compound 152, 2-(4-chloro-3-fluorophenoxy)-N-[3-(5-{[(furo[3,2-b]pyridin-6-yl)oxy]methyl}-1,3,4-oxadiazol-2-yl)bicyclo[1.1.1]pentan-1-yl]acetamide]
The EC50 of the first is lower: under 0.05 µM for the first, 1 to 2 µM for the second. The first is the more potent here.

First: Cc1cc(OCc2nnc(C34CC(NC(=O)COc5ccc(Cl)c(F)c5)(C3)C4)o2)cnc1C#N [Compound 156, 2-(4-chloro-3-fluorophenoxy)-N-[3-(5-{[(6-cyano-5-methylpyridin-3-yl)oxy]methyl}-1,3,4-oxadiazol-2-yl)bicyclo[1.1.1]pentan-1-yl]acetamide]
Second: Cc1cc(Oc2nnc(C34CC(NC(=O)COc5ccc(Cl)c(F)c5)(C3)C4)o2)cnc1C#N [Compound 118, 2-(4-chloro-3-fluorophenoxy)-N-(3-{5-[(6-cyano-5-methylpyridin-3-yl)oxy]-1,3,4-oxadiazol-2-yl}bicyclo[1.1.1]pentan-1-yl)acetamide]
The EC50 of the first is higher: 1 to 2 µM for the first, 0.25 to 1 µM for the second.

First: O=C(COc1ccc(Cl)c(F)c1)NC12CC(c3nnc(Oc4ccc(Cl)cc4)o3)(C1)C2 [Compound 128, 2-(4-chloro-3-fluorophenoxy)-N-{3-[5-(4-chlorophenoxy)-1,3,4-oxadiazol-2-yl]bicyclo[1.1.1]pentan-1-yl}acetamide]
Second: COc1ccc(Oc2nnc(C34CC(NC(=O)COc5ccc(Cl)c(F)c5)(C3)C4)o2)cn1 [Compound 120, 2-(4-chloro-3-fluorophenoxy)-N-(3-{5-[(6-methoxypyridin-3-yl)oxy]-1,3,4-oxadiazol-2-yl}bicyclo[1.1.1]pentan-1-yl)acetamide]
The EC50 of the first is lower: under 0.05 µM for the first, 0.05 to 0.25 µM for the second.

Compared with `O=C(COc1ccc(Cl)c(F)c1)NC12CC(c3nc(COc4ccc(C5CC5)nc4)no3)(C1)C2` [Compound 163, 2-(4-chloro-3-fluorophenoxy)-N-[3-(3-{[(6-cyclopropylpyridin-3-yl)oxy]methyl}-1,2,4-oxadiazol-5-yl)bicyclo[1.1.1]pentan-1-yl]acetamide], `O=C(COc1ccc(Cl)c(F)c1)NC12CC(c3nc(COc4ccnc(C(F)(F)F)c4)no3)(C1)C2` [Compound 160, 2-(4-chloro-3-fluorophenoxy)-N-{3-[3-({[2-(trifluoromethyl)pyridin-4-yl]oxy}methyl)-1,2,4-oxadiazol-5-yl]bicyclo[1.1.1]pentan-1-yl}acetamide] is lower in EC50: 0.25 to 1 µM for the first, 0.05 to 0.25 µM for the second.

Compared with `O=C(COc1ccc(Cl)cc1)NC12CC(c3nc(COc4ccc(Cl)c(Cl)c4)no3)(C1)C2` [Compound 158, 2-(4-chlorophenoxy)-N-(3-{3-[(3,4-dichlorophenoxy)methyl]-1,2,4-oxadiazol-5-yl}bicyclo[1.1.1]pentan-1-yl)acetamide], `Cc1cc(OCC(=O)NC23CC(c4nc(COc5ccc(Cl)cc5)no4)(C2)C3)ccc1Cl` [Compound 104, 2-(4-chloro-3-methylphenoxy)-N-(3-{3-[(4-chlorophenoxy)methyl]-1,2,4-oxadiazol-5-yl}bicyclo[1.1.1]pentan-1-yl)acetamide] is higher in EC50: under 0.05 µM for the first, 0.25 to 1 µM for the second. The first is the more potent here.

First: O=C(COc1ccc(Cl)c(F)c1)NC12CC(c3noc(COc4ccc(Cl)cc4)n3)(C1)C2 [Compound 113, 2-(4-chloro-3-fluorophenoxy)-N-(3-{5-[(4-chlorophenoxy)methyl]-1,2,4-oxadiazol-3-yl}bicyclo[1.1.1]pentan-1-yl)acetamide]
Second: O=C(COc1ccc(Cl)cc1)NC12CC(c3nnc(COc4ccc(Cl)cc4)o3)(C1)C2 [Compound 100, 2-(4-chlorophenoxy)-N-(3-{5-[(4-chlorophenoxy)methyl]-1,3,4-oxadiazol-2-yl}bicyclo[1.1.1]pentan-1-yl)acetamide]
The EC50 of the first is lower: under 0.05 µM for the first, 0.05 to 0.25 µM for the second.

First: O=C(COc1ccc(C(F)(F)F)nc1)NC12CC(c3nc(COc4ccc(Cl)cc4)no3)(C1)C2 [Compound 114, N-(3-{3-[(4-chlorophenoxy)methyl]-1,2,4-oxadiazol-5-yl}bicyclo[1.1.1]pentan-1-yl)-2-{[6-(trifluoromethyl)pyridin-3-yl]oxy}acetamide]
Second: N#Cc1cccc(Oc2nnc(C34CC(NC(=O)COc5ccc(Cl)c(F)c5)(C3)C4)o2)c1 [Compound 129, 2-(4-chloro-3-fluorophenoxy)-N-{3-[5-(3-cyanophenoxy)-1,3,4-oxadiazol-2-yl]bicyclo[1.1.1]pentan-1-yl}acetamide]
The EC50 of the first is higher: 0.25 to 1 µM for the first, 0.05 to 0.25 µM for the second. The second is the more potent here.
